Measurements reported in patent publication US11759651B2, “In vivo visualization and control of pathological changes in neural circuits” (THE REGENTS OF THE UNIVERSITY OF CALIFORNIA, priority 2011, dated 2023).
Like-named read-outs stand apart in the source and are kept apart here.

Experiments:
[1] = tested on: hippocampal network activity; conditions: cited from earlier work
APP^L/S mice [2] = assay: Choline acetyltransferase immunostaining of basal forebrain sections; format: in vivo, mouse; conditions: APP^L/S mice treated with LM11A-31
Description: Scale bars=25 μm. b, Photomicrograph of choline acetyltransferase-immunostained basal forebrain sections. […] Statistical significance was determined using ANOVA and post-hoc Student-Neuman-Keuls testing.

APP/PS1 mice = assay: LTP in the hippocampus; format: in vivo, mouse; conditions: APP/PS1-vehicle vs. APP/PS1-LM11A-31, p=0.02, wt-vehicle vs. wt-LM11A-31, NS
APPL/S mice = assay: Object recognition test; format: in vivo, mouse; conditions: ANOVA and post-hoc Student-Neuman-Keuls testing
APP^L/S mice [3] = assay: APP immunolabeling for dystrophic neurites and Thioflavin S staining for amyloid plaques in hippocampus; format: in vivo; conditions: APP^L/S mice given vehicle or LM11A-31; transgenic mouse model of AD
[4] = 10 μM NBQX and 25 μM D-AP5 applied together, stimulus pulse applied to DG, 400 μm-thick ventral hippocampal slice

In the case of COc1ccc(-c2ccc(=N)n(CCCC(=O)O)n2)cc1 [GABAzine], the VSDI signal [1] is listed as “confirmed signal extinction”.
In the case of CC[C@H](C)[C@H](N)C(=O)NCCN1CCOCC1 [LM11A-31], the “length, volume and branching of cholinergic neurites in the basal forebrain” value (APP^L/S mice [2]) is reported as “increased length, volume, and branching of cholinergic neurites”, the LTP (APP/PS1 mice) is reported as “normalizes LTP” and the object recognition deficits (APPL/S mice) is reported as “prevented object recognition deficits”. The “dystrophic neurites and amyloid plaque formation in the hippocampus” value (APP^L/S mice [3]) was “rescued significantly”.
For NS(=O)(=O)c1cccc2c1c([N+](=O)[O-])cc1nc(O)c(O)nc12 [NBQX], the VSDI signal [1, 4] is given as “abolished”.
For NC(CCCP(=O)(O)O)C(=O)O [D-AP5], the VSDI signal [1, 4] is listed as “abolished”.
